Assay results from patent publication US20230270797A1, “NOVEL STRAIN OF THE SPECIES LACTICASEIBADLLUS RHAMNOSUS, COMPOSITIONS THEREOF AND USE THEREOF IN THE TREATMENT OF GENITOURINARY INFECTIONS” (URIACH ITALY S.R.L., priority 2020, published 2023).

Test: Antioxidant activity, linoleic acid peroxidation (ferric thiocyanate)
Assay type: biochemical
Details: cell free supernatant; linoleic acid 50 mM; negative control (MRS broth) Abs500 nm = 2
Method: Oxidation was measured by determining ferric thiocyanate. Butylated hydroxytoluene (BHT) and α-tocopherol (1 mg/mL) were used as positive controls. MRS broth was used as negative control. […] The analysis was carried out in triplicate.

SMILES: Cc1c(C)c2c(c(C)c1O)CC[C@@](C)(CCC[C@H](C)CCC[C@H](C)CCCC(C)C)O2 [positive control, α-tocopherol]
- Antioxidant activity, absorbance values at 500nm: positive control: Abs500 nm = 0.25)
